Results on one compound are retold here after doi:10.1101/2020.04.09.034306v1 (biorxiv, 2020).

Structures are written as SMILES. pIC50: −log10 of the molar value.

The target in the experiment is T1, ACE (angiotensin-I converting enzyme, from rabbit lung) (Oryctolagus cuniculus, UniProt P12822).
T1 sequence (P12822 34-1310): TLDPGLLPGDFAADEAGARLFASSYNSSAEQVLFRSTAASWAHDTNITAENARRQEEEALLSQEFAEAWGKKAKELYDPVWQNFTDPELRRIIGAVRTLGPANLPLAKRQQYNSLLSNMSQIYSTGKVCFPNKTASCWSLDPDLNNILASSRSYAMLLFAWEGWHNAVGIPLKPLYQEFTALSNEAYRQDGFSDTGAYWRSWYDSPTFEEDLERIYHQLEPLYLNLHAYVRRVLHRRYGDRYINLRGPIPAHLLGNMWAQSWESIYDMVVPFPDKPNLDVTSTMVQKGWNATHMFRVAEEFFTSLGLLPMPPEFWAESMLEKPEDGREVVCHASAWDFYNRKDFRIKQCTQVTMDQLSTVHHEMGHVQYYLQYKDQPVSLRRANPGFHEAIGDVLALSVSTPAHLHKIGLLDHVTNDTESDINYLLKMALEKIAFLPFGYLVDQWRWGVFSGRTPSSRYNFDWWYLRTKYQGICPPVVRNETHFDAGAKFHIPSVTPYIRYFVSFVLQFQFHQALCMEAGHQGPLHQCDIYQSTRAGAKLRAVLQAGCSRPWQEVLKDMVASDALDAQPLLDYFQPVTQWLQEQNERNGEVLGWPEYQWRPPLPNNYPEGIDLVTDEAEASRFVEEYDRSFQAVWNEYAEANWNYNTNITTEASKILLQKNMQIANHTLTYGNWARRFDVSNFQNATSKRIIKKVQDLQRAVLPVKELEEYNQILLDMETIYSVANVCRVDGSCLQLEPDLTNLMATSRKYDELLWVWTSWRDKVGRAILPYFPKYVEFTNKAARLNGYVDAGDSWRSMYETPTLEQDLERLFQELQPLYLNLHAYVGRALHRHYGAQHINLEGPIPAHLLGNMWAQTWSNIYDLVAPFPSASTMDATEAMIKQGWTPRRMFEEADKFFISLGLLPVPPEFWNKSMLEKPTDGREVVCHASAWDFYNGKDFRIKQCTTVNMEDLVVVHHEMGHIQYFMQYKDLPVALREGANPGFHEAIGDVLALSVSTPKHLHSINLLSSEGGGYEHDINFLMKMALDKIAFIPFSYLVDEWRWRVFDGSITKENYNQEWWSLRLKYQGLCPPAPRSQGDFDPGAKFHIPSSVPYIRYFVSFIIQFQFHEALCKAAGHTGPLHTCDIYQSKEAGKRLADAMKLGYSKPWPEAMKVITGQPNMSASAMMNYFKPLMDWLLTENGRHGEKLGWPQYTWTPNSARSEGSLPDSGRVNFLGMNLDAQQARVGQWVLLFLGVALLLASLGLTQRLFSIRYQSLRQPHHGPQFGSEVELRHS
Kind of experiment: hippuric acid release from HHL, cyanuric chloride colour at […] nm. In kind it is biochemical.

As to `NCCCC[C@H](N[C@@H](CCc1ccccc1)C(=O)O)C(=O)N1CCC[C@H]1C(=O)O` [Lisinopril], the pIC50 is 6.12.
